Test results published in the OPERA property sets (Mansouri et al. 2018).

Details: for log10 BCF / log10 biotransformation half-life (days): fish

Row | Structure (SMILES) | melting point [°C] | boiling point [°C] | also measured
1 | CCCCC(CC)COP(=O)(O)OCC(CC)CCCC (centres undefined) | -50 |  | ready biodegradability: not readily biodegradable; log10 BCF: 0.64
2 | N#CI | 147 |  | 
3 | CC12CCC(CC1)C2(C)C | 158 | 161 | 
4 | C/C=C/CO |  | 121 | 
5 | CN(C)C(=O)SCCCCOc1ccccc1 | 40.5 |  | log10 vapour pressure (mmHg): -5.9
6 | c1ccc(-c2ccc(-c3ccccc3)cc2)cc1 | 210 | 376 | log10 vapour pressure (mmHg): -7; ready biodegradability: not readily biodegradable
7 | O=C(OCC1(COC(=O)c2cccnc2)CCCC(COC(=O)c2cccnc2)(COC(=O)c2cccnc2)C1O)c1cccnc1 | 178 |  | 
8 | NCCS(=O)(=O)O | 328 |  | 
9 | C=C(C)C(=O)O | 16 | 163 | log10 Henry constant (atm·m³/mol): -6.41; log10 vapour pressure (mmHg): -0.0044; ready biodegradability: readily biodegradable
10 | FC(F)(F)C(Cl)=CCl | -109 | 53.7 | 
11 | C[C@@H](N)C(=O)O | 292 |  | 
12 | C1CCC(OC2CCCCC2)CC1 | -36 | 242 | 
13 | Cn1c(=O)ccc2ccccc21 | 74 | 325 | 
14 | Cc1ccc(C)c(Cc2ccccc2)c1 |  |  | ready biodegradability: not readily biodegradable; log10 BCF: 3.14; log10 biotransformation half-life (days): 0.45
15 | Cc1ccc(Cl)c(C)c1 | -32.5 | 184 | 
16 | O=C(Nc1ccccc1Cl)c1ccccc1 | 99 |  | 
17 | CC1CC=CC1 | -161 | 65.7 | 
18 | CC(C)(O)C(Cl)(Cl)Cl | 97 | 167 | ready biodegradability: not readily biodegradable; log10 BCF: 0.23
19 | c1ccc2c(c1)CCc1ccccc1-2 | 34.5 |  | log10 vapour pressure (mmHg): -3.22
20 | CC(=O)c1c(O)c(C)c(O)c2c1OC1=CC(=O)C(C(C)=O)C(=O)C12C (centres undefined) | 204 |  | 
21 | CCN(CC)C(=O)n1cnc(S(=O)(=O)c2c(C)cc(C)cc2C)n1 | 115 |  | log10 vapour pressure (mmHg): -10.6
22 | O=C(O)C=Cc1ccc(Br)cc1 | 263 |  | 
23 | FC(F)(F)COCC(F)(F)F |  | 63.9 | log10 vapour pressure (mmHg): 2.19
24 | FC(F)(F)C(F)(F)C(F)(F)C(F)(F)C(F)(F)C(F)(F)C(F)(F)C(F)(F)C(F)(F)F | -16 | 123 | 
25 | COc1ccc(Br)cc1OC |  | 254 | 

Row | Structure (SMILES) | melting point [°C] | boiling point [°C] | also measured
26 | Cc1cc(Cl)ccc1OC(C)C(=O)O (centres undefined) | 94.5 | 298 | log10 Koc (L/kg): 1.3
27 | CCCCCCF | -103 | 91.5 | log10 vapour pressure (mmHg): 1.76
28 | Cc1ccc2oc(=O)ccc2c1 | 76.5 | 304 | 
29 | BrCC1CO1 (centres undefined) | -40 | 135 | 
30 | Clc1cc(Cl)c(Cl)c(-c2c(Cl)c(Cl)c(Cl)c(Cl)c2Cl)c1Cl |  |  | log10 biotransformation half-life (days): 2.63
31 | CNC(=O)Oc1ccc(N(C)C)c(C)c1 | 93.5 |  | log10 Koc (L/kg): 2; ready biodegradability: readily biodegradable
32 | CC(=O)OCC(=O)[C@H]1CC[C@H]2[C@@H]3CC[C@H]4C[C@H](O)CC[C@]4(C)[C@H]3C(=O)C[C@]12C | 176 |  | 
33 | CCCCCCCCCCCCOCCCCCCCCCCCC |  |  | ready biodegradability: readily biodegradable
34 | COc1cc(CCO)ccc1O | 41 |  | 
35 | O=C(O)c1ccccc1Br | 150 |  | 
36 | N#Cc1c(F)c(F)c(C#N)c(F)c1F | 198 |  | 
37 | CC(=O)Cc1ccccc1 | -15 | 216 | 
38 | C=C(C)C(=O)NCO | -37 |  | 
39 | Clc1ccc(-c2c(Cl)cc(Cl)c(Cl)c2Cl)c(Cl)c1 | 73 |  | 
40 | C=COCCC |  | 65 | 
41 | O=C(O)CSc1ccccc1 | 65 |  | 
42 | CCC(C(=O)O)C1(O)CCCCC1 (centres undefined) | 81.5 |  | 
43 | FC(F)(F)c1cccc(Cl)c1 | -56 | 138 | ready biodegradability: not readily biodegradable; log10 BCF: 2.35; log10 biotransformation half-life (days): 0.64
44 | CCCCCCC(=O)CC | -8 | 190 | 
45 | CCCO |  | 97.2 | log10 Henry constant (atm·m³/mol): -5.13; log10 vapour pressure (mmHg): 1.32; ready biodegradability: readily biodegradable
46 | c1ccc2cc(Nc3ccc4ccccc4c3)ccc2c1 | 172 | 471 | 
47 | Cc1ccccc1-c1ccccc1 | -0.2 | 256 | 
48 | Clc1ccc(-c2cc(Cl)c(Cl)c(Cl)c2Cl)cc1Cl |  |  | log10 vapour pressure (mmHg): -5.79; log10 biotransformation half-life (days): 2.73
49 | CC(O)CBr (centres undefined) |  | 146 | 
50 | CCC(C)C | -160 |  | log10 vapour pressure (mmHg): 2.84

Row | Structure (SMILES) | melting point [°C] | boiling point [°C] | also measured
51 | CCN(CC)C(=O)CC(C)C |  | 211 | 
52 | CN(C)[Si](C)(C)C |  | 86 | 
53 | CCCCCCCC/C=C\CCCCCCCCCCCC(=O)O | 33.5 |  | 
54 | C=C(C)C(=O)OCCO |  |  | log10 vapour pressure (mmHg): -0.9; ready biodegradability: readily biodegradable
55 | CCOC(=O)C(c1c(O)c2ccccc2oc1=O)c1c(O)c2ccccc2oc1=O | 154 |  | 
56 | CCCC(Br)C(=O)OCC (centres undefined) |  | 191 | 
57 | Cc1ccccc1N(CC1CO1)CC1CO1 (centres undefined) |  |  | ready biodegradability: not readily biodegradable
58 | Clc1cc(-c2ccccc2)c(Cl)c(Cl)c1Cl |  |  | log10 Koa: 8.74; log10 vapour pressure (mmHg): -4.43
59 | O=C1/C(=C2\Nc3ccccc3C2=O)Nc2ccccc21 |  |  | ready biodegradability: not readily biodegradable
60 | Cc1ccc(O)c(C=O)c1 | 56 | 218 | 
61 | O=C=Nc1cccc(N=C=O)c1 | 50 |  | 
62 | CCN(CC)C(=O)CSc1ccc(Cl)nn1 | 97 |  | ready biodegradability: not readily biodegradable
63 | CNC(=O)N(C)c1nnc(C(F)(F)F)s1 | 136 |  | 
64 | CCCCN(C(C)=O)c1ccccc1 | 24.5 | 281 | 
65 | C1=NN(c2ccccc2)CC1 | 52 | 273 | 
66 | Nc1cccc(F)c1 | -5 | 188 | 
67 | CNNC | -9 | 81 | log10 vapour pressure (mmHg): 1.84
68 | CNC(C)=O | 28 | 205 | log10 vapour pressure (mmHg): -0.356; ready biodegradability: readily biodegradable
69 | CC(CCc1ccccc1)NC(C)C(O)c1cc(I)c(O)c(I)c1 (centres undefined) | 212 |  | 
70 | c1ccc(CN(Cc2ccccc2)Cc2ccccc2)cc1 | 91.5 | 385 | 
71 | CCc1ccccc1-n1c(C)nc2ccccc2c1=O | 81 |  | 
72 | CC(C)CCI |  | 147 | 
73 | Clc1c(Cl)c(Cl)c2ccccc2c1Cl | 198 |  | log10 Koa: 8.3; log10 vapour pressure (mmHg): -5.54; log10 BCF: 3.7; log10 biotransformation half-life (days): 1.2
74 | Clc1cc(Cl)c2c(c1Cl)Oc1c(Cl)cc(Cl)c(Cl)c1O2 | 238 |  | log10 vapour pressure (mmHg): -10.3
75 | CC(=O)Nc1cccc(F)c1 | 83 |  | log10 Koc (L/kg): 1.57

Row | Structure (SMILES) | melting point [°C] | boiling point [°C] | also measured
76 | Clc1cc(Cl)c2c(Cl)cc(Cl)cc2c1 |  |  | log10 Koa: 8.28
77 | N#CCCNCCC#N |  |  | ready biodegradability: not readily biodegradable; log10 BCF: 0.08
78 | CNc1ccc(C(=O)O)cc1 |  |  | ready biodegradability: not readily biodegradable; log10 BCF: 0.38
79 | C#CCCCCCC#C | -27.3 | 162 | 
80 | CCN(CC)c1ccc(C=O)cc1 | 41 |  | ready biodegradability: not readily biodegradable
81 | COC(C)=O | -98 | 56.8 | log10 Henry constant (atm·m³/mol): -3.94; log10 Koa: 2.31; log10 vapour pressure (mmHg): 2.33; ready biodegradability: readily biodegradable
82 | C(#Cc1ccccc1)c1ccccc1 | 62.5 | 300 | log10 vapour pressure (mmHg): -2.64
83 | c1ccc2c(c1)Cc1ccccc1S2 | 128 | 341 | 
84 | OCC(O)COc1ccccc1Cl (centres undefined) | 71.5 |  | 
85 | O=C(NC(=O)c1c(F)cccc1F)Nc1cc(Cl)c(F)c(Cl)c1F | 222 |  | log10 vapour pressure (mmHg): -11.2
86 | O=C/C(Cl)=C(/Cl)C(=O)O | 127 |  | 
87 | Cn1cccn1 |  | 127 | 
88 | Clc1nc(Cl)nc(Nc2ccccc2Cl)n1 | 160 |  | log10 Koc (L/kg): 3; log10 vapour pressure (mmHg): -8.21
89 | CCCCCCCCCCCCCCN | 83.1 | 291 | log10 vapour pressure (mmHg): -3.01
90 | CCCCCC(C)C | -109 | 118 | log10 biodegradation half-life (days): 0.477; log10 vapour pressure (mmHg): 1.32
91 | Cc1ccc2c(c1)CCC(C)C2 (centres undefined) | 20 | 240 | 
92 | O=S(=O)(O)c1ccc2c(O)cc(S(=O)(=O)O)cc2c1 |  |  | ready biodegradability: readily biodegradable
93 | Nc1cc(N)cc(C(=O)O)c1 | 228 |  | 
94 | CCC(C)CCCC(C)CCCC(C)C (centres undefined) |  |  | log10 biotransformation half-life (days): 1.36
95 | C#C[C@]1(O)CC[C@H]2[C@@H]3CCC4=CC(=O)CCC4=C3C=C[C@@]21C | 169 |  | 
96 | CO[C@H]1O[C@H](CNC(=O)N(CCCl)N=O)[C@@H](O)[C@H](O)[C@H]1O | 111 |  | 
97 | O=CC=Cc1ccc([N+](=O)[O-])o1 | 118 |  | 
98 | CCC(=O)OC(C)CC (centres undefined) |  | 133 | 
99 | CCCCS(=O)(=O)O | -15.2 |  | 
100 | CC1(C)CON(Cc2ccccc2Cl)C1=O | 25 | 275 | log10 Koc (L/kg): 2.44; log10 vapour pressure (mmHg): -3.84

Row | Structure (SMILES) | melting point [°C] | boiling point [°C] | also measured
101 | O=C(OCCOC(=O)c1ccccc1)c1ccccc1 | 73.5 |  | 
102 | CCOC(=O)C(=O)Cl |  | 137 | log10 vapour pressure (mmHg): 0.882
103 | CSCC(C)C |  | 112 | 
104 | C[C@H]1O[C@@H](n2cc(F)c(=O)[nH]c2=O)[C@H](O)[C@@H]1O | 190 |  | 
105 | Cc1cc(C)c(O)c(C(C)(C)C)c1 | 22.3 | 249 | log10 vapour pressure (mmHg): -1.35; ready biodegradability: not readily biodegradable
106 | COC(=O)C(C)C(=O)OC |  | 174 | 
107 | c1cnccn1 | 55 | 115 | log10 vapour pressure (mmHg): 1.03; ready biodegradability: readily biodegradable
108 | CCCCOC(=O)CC | -89 | 147 | log10 vapour pressure (mmHg): 0.645
109 | c1ccc2c(c1)Sc1ccccc1S2 | 159 | 365 | ready biodegradability: not readily biodegradable
110 | CCCCN=C=S |  | 168 | 
111 | Cc1ccc(O)c(-n2nc3ccccc3n2)c1 | 132 |  | 
112 | C1=CCCCCC1 | -56 | 115 | 
113 | O=C(O)c1ccc[nH]1 |  |  | log10 vapour pressure (mmHg): -5.65
114 | COC(=O)c1ccc2cc(C(=O)OC)ccc2c1 |  |  | ready biodegradability: not readily biodegradable
115 | CCN(CC)CC(=O)OCC(=O)[C@@]1(O)CC[C@H]2[C@@H]3CCC4=CC(=O)C=C[C@]4(C)[C@H]3[C@@H](O)C[C@@]21C | 176 |  | 
116 | CCOc1ccc(N=Nc2ccc(OCC)cc2)cc1 | 162 |  | 
117 | Nc1c(F)cc(F)cc1F | 35 |  | 
118 | COC(=O)c1ccc(Br)cc1 | 81 |  | 
119 | CCCCCCCCCCCCCCCCCC(=O)O | 68.8 | 383 | log10 vapour pressure (mmHg): -6.14; ready biodegradability: readily biodegradable
120 | NCCOCCO |  | 221 | log10 vapour pressure (mmHg): -2.81
121 | Oc1cccc(C(F)(F)F)c1 | -1.8 | 178 | 
122 | Cc1ccc(-c2cccc(C)c2)cc1 | 14.5 | 289 | 
